Assay: Plasma glucose level after subcutaneous injection of insulin in rabbits
Type: in vivo, Japanese Wister rabbit
Conditions: rabbit, 0.5 ml of 1 unit/ml
Experimental: For each insulin sample, an aliquot was taken from the fractions so that the insulin contents for both kinds of insulin calculated based on the main peak areas became same, and then dried.
The resulting solution (0.5 ml) was subcutaneously injected to the back of a Japanese Wister rabbit (Kbs:JW, […]). After the injection, blood was collected from the anterior auricular vein of the rabbit over a period of time. Each blood sample (0.45 ml) was added with a mix of glycolysis-inhibiting agents (NaF: 12.5 mg/ml, heparin-Na: 125 units/ml, EDTA-2Na: 48 mg/ml) ([…]]) and fully mixed. The mixed solution was centrifuged at 3,000 rpm for 15 min. at 5° C., and the supernatant was used as a plasma sample. For each plasma sample, the plasma glucose level was determined using a biochemical automated analyzer (CIBA-CORNING; Express PLUS), and the plasma insulin level was determined using EIA kit (Wako Pure Chemical Industries, Ltd.).

Novolin: a commercially available insulin, Novolin 40, (Novo Nordisk Pharma); insulin fractions re-purified by HPLC before testing
time course of the plasma glucose level after the injection of insulin (subcutaneous injection to the back, FIG. 9): showed the decrease in plasma glucose level
plasma glucose level compared with ITOHAM insulin (subcutaneous, relative to ITOHAM insulin): slight lower plasma glucose level

Source: patent publication US6841361B1, “Methods of producing recombinant insulin from novel fused proteins” (Itoham Foods Inc., priority 1999, dated 2005)
